According to PubChem BioAssay AID1963847 (Molecular Pharmacology Branch, DTP, NCI, 2024):

System: 415267-285-R-J2-PDC complex spheroid viability
Assay: Anticancer human tumor 415267-285-R-J2-PDC patient-derived breast carcinoma cell line growth inhibition [POLQ]
Settings: for IC50: curve of first compound; for viability, T/C: stronger effect = lower value; active = viability on the fitted dose curve at most 10% of control; inactive = the rest
Procedure: Multicellular complex tumor spheroid response to Polymerase (POL) inhibitors (novobiocin, ART-558, RP6685) in combination with a variety of drugs and investigational agents in selected tumor cell lines
The POL inhibitors (novobiocin, ART-558, and RP6685) were evaluated both individually and in combination with standard of care and investigational anticancer small molecules within a complex spheroid model of solid tumors. . Complex spheroids include a stromal component modeled by human endothelial cells (HUVEC) and fibroblasts modeled by human mesenchymal stem cells (MSCs). The concentration ranges selected for each drug and investigational agent were based upon clinically achievable concentrations if the clinical Cmax of the agent was known.
Compounds. The drugs and investigational agents: novobiocin (NSC847541), ART-558 (NSC835418), RP-6685 (NSC848927), peposertib (NSC802822), ceralasertib (NSC780249), elimusertib (NSC800525), camonsertib (NSC841442), AZD-1390 (NSC803789), olaparib (NSC753686), talazoparib (NSC767125), rucaparib (NSC756644), sotorasib (NSC818433), MRTX-1133 (NSC836407), SN-38 (NSC673596), topotecan (NSC609699), epotoside (NSC141540), doxorubicin (NSC123127), gemcitabine (NSC613327), 5-fluorouracil (NSC19893), paclitaxel (NSC125973), vemurafenib (NSC761431), MSA-2 (NSC828583), SN-011 (NSC837082), adavosertib (NSC754352), prexasertib (NSC758257), carboplatin (NSC241240) and oxaliplatin (NSC266046), were obtained from the National Cancer Institute (NCI) Developmental Therapeutics Program Chemical Repository (21). The FDA-approved anticancer drug set is available from the Developmental Therapeutics Program at https://dtp.cancer.gov/organization/dscb/obtaining/. […] The stock solutions were prepared in dimethyl sulfoxide (DMSO, Sigma-Aldrich, St. Louis, MO, cat. D2650), except for the platinum compounds which were prepared in saline (Quality Biological, Gaithersburg, MD, cat. 114-055-101), at 800-fold the tested concentration and stored at -70 degrees C prior to their use. All drugs and investigational agents were tested over a range starting from a high concentration at or near the clinical Cmax and decreasing in half-log increments. If the clinical Cmax for an agent had not been determined, the highest concentration tested was 10 microM, except for SN-38, which was tested at a high concentration of 1 microM.
Cell Culture. All cells were maintained in an incubator at 37 degrees C and 5% CO2 with 95% humidity. The PDC lines were cultured according to standard operating procedures established by the NCI PDMR (https://pdmr.cancer.gov). Table 3 of the manuscript, lists the cell lines along with the number of the three cell types plated to form the mct-spheroids and media for tumor cell growth. After thawing, all PDC lines, except 997537-175-T-J1-PDC and 415267-285-R-J2-PDC, were cultured in Matrigel-coated flasks prepared with a working solution of 1X Ham's F-12 nutrient mix, without supplementation (Thermo Fisher Scientific, cat. 11765054), 100 U/mL penicillin-streptomycin (Thermo Fisher Scientific, cat. 15140122), and 2.5% Matrigel (Corning Inc., Corning, NY, cat. 354248) for the first three passages. The two PDC lines 997537-175-T-J1-PDC and 415267-285-R-J2-PDC were cultured on uncoated flasks. The 857933-349-R-J2-PDC line was cultured in 6C/Colon 1B media containing advanced DMEM/F-12 (Thermo Fisher Scientific, cat. 12634028), 10 mM HEPES (Thermo Fisher Scientific, cat. 15630080), 1X GlutaMAX supplement (Thermo Fisher Scientific, cat. 35050061), 0.1 mg/mL primocin (InvivoGen, San Diego, CA, cat. ant-pm-2), 10% defined fetal bovine serum, heat inactivated (HyClone Laboratories Inc., Logan, UT, cat. SH30070.03HI), 50% L-WRN conditioned media (ATCC, cat. CRL-3276), 1.25 mM N-Acetyl-L-cysteine (Sigma-Aldrich, cat. A9165), 10 mM nicotinamide (Sigma-Aldrich, cat. N0636), 1X B-27 supplement (Thermo Fisher Scientific, cat. 17504044), 1X N-2 supplement (Thermo Fisher Scientific, cat. […]

[1] = second compound 0.0316 µM, first compound 0.0316 µM
[2] = second compound 0.0316 µM, first compound 0.1 µM
[3] = second compound 0.0316 µM, first compound 0.316 µM
[4] = second compound 0.0316 µM, first compound 1 µM
[5] = second compound 0.1 µM, first compound 0.0316 µM
[6] = second compound 0.1 µM, first compound 0.1 µM
[7] = second compound 0.1 µM, first compound 0.316 µM
[8] = second compound 0.1 µM, first compound 1 µM
[9] = second compound 0.316 µM, first compound 0.0316 µM
[10] = second compound 0.316 µM, first compound 0.1 µM
[11] = second compound 0.316 µM, first compound 0.316 µM
[12] = second compound 0.316 µM, first compound 1 µM
[13] = second compound 1 µM, first compound 0.0316 µM
[14] = second compound 1 µM, first compound 0.1 µM
[15] = second compound 1 µM, first compound 0.316 µM
[16] = second compound 1 µM, first compound 1 µM
[17] = second compound 3.16 µM, first compound 0.0316 µM
[18] = second compound 3.16 µM, first compound 0.1 µM
[19] = second compound 3.16 µM, first compound 0.316 µM
[20] = second compound 3.16 µM, first compound 1 µM
[21] = second compound 10 µM, first compound 0.0316 µM
[22] = second compound 10 µM, first compound 0.1 µM
[23] = second compound 10 µM, first compound 0.316 µM
[24] = second compound 10 µM, first compound 1 µM
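Note: spheroids exposed to compounds for one week before readout.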
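Throughout, for viability, T/C: luminescence used as stand-in measure of viable cells.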

CCc1c2c(nc3ccc(O)cc13)-c1cc3c(c(=O)n1C2)COC(=O)[C@]3(O)CC + COC1C(OC(N)=O)C(O)C(Oc2ccc3c(O)c(NC(=O)c4ccc(O)c(CC=C(C)C)c4)c(=O)oc3c2C)OC1(C)C
active: viability, T/C [1] 6.54% | viability, T/C [2] 4.82% | viability, T/C [3] 3.41% | viability, T/C [4] 1.27% | viability, T/C [5] 7.02% | viability, T/C [6] 5.02% | viability, T/C [7] 3.21% | viability, T/C [8] 1.32% | viability, T/C [9] 9.37% | viability, T/C [10] 4.84% | viability, T/C [11] 5.41% | viability, T/C [12] 1.19% | viability, T/C [13] 7.66% | viability, T/C [14] 4.1% | viability, T/C [15] 4.05% | viability, T/C [16] 1.96% | viability, T/C [17] 6.74% | viability, T/C [18] 4.81% | viability, T/C [19] 3.35% | viability, T/C [20] 1.51% | viability, T/C [21] 7.22% | viability, T/C [22] 4.24% | viability, T/C [23] 3.48% | viability, T/C [24] 1.63%
< 3.16 nM: IC50 (second compound 0.0316 µM) | IC50 (second compound 0.1 µM) | IC50 (second compound 0.316 µM) | IC50 (second compound 1 µM) | IC50 (second compound 3.16 µM) | IC50 (second compound 10 µM)
inactive: viability, T/C (second compound 0.0316 µM, first compound 0.00316 µM) 32.7% | viability, T/C (second compound 0.0316 µM, first compound 0.01 µM) 10% | viability, T/C (second compound 0.1 µM, first compound 0.00316 µM) 38.3% | viability, T/C (second compound 0.1 µM, first compound 0.01 µM) 11% | viability, T/C (second compound 0.316 µM, first compound 0.00316 µM) 36.5% | viability, T/C (second compound 0.316 µM, first compound 0.01 µM) 11% | viability, T/C (second compound 1 µM, first compound 0.00316 µM) 43.8% | viability, T/C (second compound 1 µM, first compound 0.01 µM) 9.67% | viability, T/C (second compound 3.16 µM, first compound 0.00316 µM) 39.8% | viability, T/C (second compound 3.16 µM, first compound 0.01 µM) 9.67% | viability, T/C (second compound 10 µM, first compound 0.00316 µM) 40.3% | viability, T/C (second compound 10 µM, first compound 0.01 µM) 10.1%

Nc1ccn(C2OC(CO)C(O)C2(F)F)c(=O)n1 (centres undefined) + COC1C(OC(N)=O)C(O)C(Oc2ccc3c(O)c(NC(=O)c4ccc(O)c(CC=C(C)C)c4)c(=O)oc3c2C)OC1(C)C
active: viability, T/C [1] 6.95% | viability, T/C [2] 7.41% | viability, T/C [3] 5.11% | viability, T/C [4] 5.97% | viability, T/C (second compound 0.0316 µM, first compound 3.16 µM) 5.96% | viability, T/C (second compound 0.0316 µM, first compound 10 µM) 7.99% | viability, T/C [5] 7.63% | viability, T/C [6] 6.2% | viability, T/C [7] 4.86% | viability, T/C [8] 5.57% | viability, T/C (second compound 0.1 µM, first compound 3.16 µM) 5.43% | viability, T/C (second compound 0.1 µM, first compound 10 µM) 5.04% | viability, T/C [9] 6.64% | viability, T/C [10] 8.84% | viability, T/C [11] 5.17% | viability, T/C [12] 4.85% | viability, T/C (second compound 0.316 µM, first compound 3.16 µM) 6.19% | viability, T/C (second compound 0.316 µM, first compound 10 µM) 4.45% | viability, T/C [14] 5.76% | viability, T/C [15] 5.6% | viability, T/C [16] 5.77% | viability, T/C (second compound 1 µM, first compound 3.16 µM) 5.83% | viability, T/C (second compound 1 µM, first compound 10 µM) 5.65% | viability, T/C [17] 7.56% | viability, T/C [18] 6.05% | viability, T/C [19] 5.39% | viability, T/C [20] 6.49% | viability, T/C (second compound 3.16 µM, first compound 3.16 µM) 5.4% | viability, T/C (second compound 3.16 µM, first compound 10 µM) 5.83% | viability, T/C [22] 5.53% | viability, T/C [23] 6.82% | viability, T/C [24] 6.71% | viability, T/C (second compound 10 µM, first compound 3.16 µM) 7.68% | viability, T/C (second compound 10 µM, first compound 10 µM) 5.33%
inactive: viability, T/C [13] 31.1% | viability, T/C [21] 24.7%
< 31.6 nM: IC50 (second compound 0.0316 µM) | IC50 (second compound 0.1 µM) | IC50 (second compound 0.316 µM) | IC50 (second compound 1 µM) | IC50 (second compound 3.16 µM) | IC50 (second compound 10 µM)
